Experimental data as given in the NIST ThermoML archive (doi:10.1016/j.jct.2012.06.020).

Assay: mn = molality of the nth substance listed, in mol/kg
Conditions: 101 kPa, Liquid; for mass density: Vibrating tube method; for speed of sound: OPTIME 1.0 from OPTEL

O=S(=O)([O-])C(F)(F)F.O=S(=O)([O-])C(F)(F)F.O=S(=O)([O-])C(F)(F)F.[La+3] [lanthanum(III) trifluoromethanesulfonate] + C[S+](C)[O-]
Conditions	mass density, 293.15 K [kg/m3]	mass density, 298.15 K [kg/m3]	mass density, 303.15 K [kg/m3]	mass density, 313.15 K [kg/m3]	mass density, 323.15 K [kg/m3]	mass density, 333.15 K [kg/m3]	speed of sound, 298.15 K [m/s]
m1 = 0.01831	1107.63	1102.61	1097.59	1087.57	1077.55	1067.52	1482.3
m1 = 0.0248	1110.28	1105.26	1100.24	1090.22	1080.21	1070.19	1481.7
m1 = 0.03536	1114.62	1109.6	1104.59	1094.58	1084.58	1074.57	1480.7
m1 = 0.04296	1117.75	1112.74	1107.73	1097.73	1087.73	1077.74	1479.9
m1 = 0.05181	1121.43	1116.42	1111.41	1101.41	1091.43	1081.44	1479
m1 = 0.0646	1126.78	1121.77	1116.77	1106.78	1096.81	1086.84	1477.8
m1 = 0.08309	1134.62	1129.61	1124.62	1114.64	1104.68	1094.74	1476
m1 = 0.1003	1142	1136.99	1132	1122.04	1112.1	1102.16	1474.3
m1 = 0.1156	1148.66	1143.66	1138.68	1128.72	1118.8	1108.9	1472.9
m1 = 0.1362	1157.7	1152.71	1147.73	1137.79	1127.88	1117.99	1470.8
m1 = 0.1528	1165.12	1160.13	1155.15	1145.24	1135.35	1125.49	1469.3

O=S(=O)([O-])C(F)(F)F.O=S(=O)([O-])C(F)(F)F.O=S(=O)([O-])C(F)(F)F.[Lu+3] [lutetium(III) trifluoromethanesulfonate] + C[S+](C)[O-]
Conditions	mass density, 293.15 K [kg/m3]	mass density, 298.15 K [kg/m3]	mass density, 303.15 K [kg/m3]	mass density, 313.15 K [kg/m3]	mass density, 323.15 K [kg/m3]	mass density, 333.15 K [kg/m3]	speed of sound, 298.15 K [m/s]
m1 = 0.01878	1108.65	1103.62	1098.6	1088.57	1078.53	1068.49	–
m1 = 0.02625	1112.04	1107.02	1101.99	1091.95	1081.91	1071.88	–
m1 = 0.03372	1115.44	1110.42	1105.39	1095.36	1085.32	1075.28	–
m1 = 0.03373	–	–	–	–	–	–	1479.8
m1 = 0.04075	1118.67	1113.64	1108.62	1098.58	1088.54	1078.51	1478.9
m1 = 0.05063	1123.23	1118.2	1113.17	1103.14	1093.11	1083.07	1477.6
m1 = 0.06739	1131.05	1126.03	1121	1110.97	1100.94	1090.91	1475.5
m1 = 0.0825	1138.19	1133.17	1128.14	1118.09	1108.05	1098.05	1473.6
m1 = 0.09757	1145.41	1140.38	1135.36	1125.31	1115.27	1105.25	1471.7
m1 = 0.1139	1153.31	1148.28	1143.26	1133.2	1123.17	1113.14	1469.6
m1 = 0.1294	1160.93	1155.9	1150.87	1140.81	1130.77	1120.74	1467.6
m1 = 0.145	1168.67	1163.64	1158.61	1148.56	1138.52	1128.5	1465.7
m1 = 0.1599	1176.2	1171.16	1166.13	1156.07	1146.04	1136.01	1463.9

O=S(=O)([O-])C(F)(F)F.O=S(=O)([O-])C(F)(F)F.O=S(=O)([O-])C(F)(F)F.[Gd+3] [gadolinium (III) trifluoromethanesulfonate] + C[S+](C)[O-]
Conditions	mass density, 293.15 K [kg/m3]	mass density, 298.15 K [kg/m3]	mass density, 303.15 K [kg/m3]	mass density, 313.15 K [kg/m3]	mass density, 323.15 K [kg/m3]	mass density, 333.15 K [kg/m3]	speed of sound, 298.15 K [m/s]
m1 = 0.01963	1108.73	1103.71	1098.7	1088.67	1078.66	1068.64	1481.8
m1 = 0.02663	1111.79	1106.78	1101.77	1091.75	1081.75	1071.74	1481
m1 = 0.03818	1116.88	1111.88	1106.87	1096.87	1086.88	1076.89	1479.6
m1 = 0.04655	1120.6	1115.6	1110.6	1100.61	1090.63	1080.64	1478.6
m1 = 0.05549	1124.6	1119.6	1114.6	1104.62	1094.65	1084.68	1477.5
m1 = 0.06913	1130.74	1125.75	1120.76	1110.8	1100.84	1090.89	1475.9
m1 = 0.08877	1139.72	1134.74	1129.76	1119.82	1109.89	1099.96	1473.6
m1 = 0.1071	1148.2	1143.23	1138.26	1128.34	1118.43	1108.52	1471.5
m1 = 0.124	1156.16	1151.2	1146.24	1136.34	1126.45	1116.58	1469.4
m1 = 0.1457	1166.53	1161.57	1156.62	1146.75	1136.88	1127.04	1467
m1 = 0.1629	1174.88	1169.93	1165	1155.14	1145.31	1135.48	1465
